Reference: US5541310A, “Herbicide resistant plants” (Ciba-Geigy Corporation, priority 1994, dated 1996)

What was measured:
[1] = system: Leaf disks of transgenic Nicotiana tabacum lines IGPD-C, E, and G; assay: Leaf disk growth (weight) on MS agar containing IGPD inhibitor, transgenic lines versus wild type; assay type: in vivo, Nicotiana tabacum cv. Xanthi-nc; settings: 30 ppm inhibitor on MS agar, after three weeks
Excerpt: Leaf disks of Nicotiana tabacum cv. Xanthi-nc were infected with A. tumefaciens CIB542 harboring pCIB200IGPD as described by Horsch et al, Science 227:1229 (1985). Kanamycin-resistant shoots from 15 independent leaf disks were transferred to rooting medium, then transplanted to soil and the resulting plants grown to maturity in the greenhouse. Seed from these plants were collected and germinated on MS agar medium containing kanamycin. Ten individual kanamycin resistant seedlings from each independent primary transformant were grown to maturity in the greenhouse, and their seed collected. These seeds were germinated on MS agar medium conta/ning kanamycin.
Plant lines that gave rise to exclusively kanamycin resistant seedlings were homozygous for the inserted gene and were subjected to further analysis. Leaf disks of each of the 15 independent transgenie lines were excised with a paper punch and placed onto MS agar containing 0 or 30 ppm of a specific IGPD inhibitor represented by formula (II), namely: [drawing 11] After three weeks, two sets of 10 disks from each line were weighed, and the results recorded. Transgenie lines designated IGPD-C, E, and G were approximately 3-fold more resistant to the inhibitor than wild type, non-transformed plants.

wheat germ IGPD = assay: IGPD enzyme activity / inhibitor assay with purified wheat germ IGPD; assay type: biochemical
Protocol: Purified IGPD may be used in assays to discover novel inhibitors of the enzyme, which inhibitors potentially would function as commercially viable herbicides. Typically, the inhibitory effect of a chemical on IGPD is determined by the absorbance difference at 370 nm using an absorbance coefficient of 10,400, which signifies the production of IAP from IGP. See, Ames et al., J. Biol. Chem. 212:687-697 (1957). Inhibitor solutions in various concentrations, e.g. 1 mM, 100 μM, 10 μM, and 1 μM, are added to the reaction mixture prior to the initiation of the enzyme reaction. A representative reaction mixture contains 50 mM Bis-Tris-propane-HCl (pH 6.6), 100 mM 2-mercaptoethanol, 1 mM MnCl2, 1 mM IGP, and between 2 and 5 mU of IGPD. Once IGP is added, the reaction is rim at 30° C., and is stopped by the addition of perchlorie acid up to 10% volume of the reaction mixture. […] Five volumes of 5N NaOH are added to the solution, and after two minutes, enolized IA is measured spectroscopically. […]
IGPD activity was determined by measuring imidazoleacetol obtained by hydrolyzing IAP. […] Five volumes of 5N NaOH were added to the solution, and after 2 minutes, the concentration of enolized imidazoleacetol was determined from the absorbance at 370 nm using the absorbance coefficient of 10,400 (Ames and Mitchell, 1955). […]

Xanthi (untransformed) = assay: Greenhouse plants treated with inhibitor, health visually scored; assay type: in vivo, Nicotiana tabacum cv. Xanthi-nc; parameters: key: 1 = severe stunting, severe chlorosis combined with necrosis; 2 = severe stunting, some interveinal chlorosis; 3 = moderate stunting, some interveinal chlorosis, pinnate leaves; 4 = moderate stunting, normal leaf morphology; 5 = healthy, with no symptoms
Protocol: (§1) To further evaluate resistance of the IGPD-overexpressing line IGPD-G, plants were grown in the greenhouse and treated with various concentrations of the inhibitor IRL 1803. After treatment, plants were photographed, and their health was visually scored.

[2] = system: IGPD-G (IGPD-overexpressing line); assay: as above; assay type: in vivo, Nicotiana tabacum cv. Xanthi-nc; parameters: key: 1 = severe stunting, severe chlorosis combined with necrosis; 2 = severe stunting, some interveinal chlorosis; 3 = moderate stunting, some interveinal chlorosis, pinnate leaves; 4 = moderate stunting, normal leaf morphology; 5 = healthy, with no symptoms
Protocol: as §1

O=P(O)(O)C1CCCC(O)(c2ncn[nH]2)C1 (stereo not shown)
resistance to the inhibitor relative to wild type, non-transformed plants (leaf disk weight) [1]: approximately 3 fold

[Mn+2] [manganese ions]
enhancement of the activity of the enzyme (wheat germ IGPD; manganese ions at a concentration of 0.5 mM): 7 fold | Km (wheat germ IGPD; read-out: Km value for Mn2+): ~110 µM

O=P(O)(O)[C@@H]1CCC[C@](O)(c2ncn[nH]2)C1 [IRL 1803]
Visual Score after Treatment (Xanthi (untransformed); 1000 ppm): 3 | Visual Score after Treatment (Xanthi (untransformed); 10000 ppm): 1 | Visual Score after Treatment ([2]; 1000 ppm): 4 | Visual Score after Treatment ([2]; 10000 ppm): 2
